Here are results for 34 compounds from ChEMBL document CHEMBL1132058, “Potent inhibitors of protein farnesyltransferase: heteroarenes as cysteine replacements” (Bioorg Med Chem Lett, 1999).

The IC50 is the concentration at which inhibition is half-maximal. By Inhibition is commonly meant the share of the control response that was lost under treatment. Usually EC50 stands for the concentration giving half of the maximal effect. Usually inhibition stands for the change of the read-out against control, counted positive when it falls. What is called AUC is concentration integrated over time. As usually defined, the Tmax is the time from dosing to the highest level. In general, half-life refers to how long it takes for the measured level to halve. By Cmax is commonly meant the highest concentration seen after dosing. A word on the bioavailability: it is the share of a dose that reaches the circulation, judged against a reference dose that is usually intravenous.

Data set [1] concerns the target Protein farnesyltransferase (Homo sapiens, UniProt P49354+P49356). As to the kind of experiment: Inhibitory activity against farnesyltransferase (FT) using SPA assay. It counts as protein-complex assay.
For data set [2], the system named is NIH3T3. As to the kind of experiment: (§1) Inhibition of H-ras processing in subconfluent H-Ras-transformed NIH3T3 cells. It counts as functional, Mus musculus. Also noted: concentration or dose not given beside the values.
Data set [3] concerns NIH3T3. The data set is described as §1. The data set is classed as functional, Mus musculus.
The subject of data set [4] is NIH3T3. The data set is described as §1. The data set is classed as functional, cell-based. As to conditions: Mus musculus.
The subject of data set [5] is NIH3T3. As to the kind of experiment: Inhibition of H-ras processing in subconfluent H-Ras-transformed NIH3T3 cells at 1 uM. The settings on record: Mus musculus. It counts as functional.
A short description of data set [6]: AUC value in dog after IV administration at a dose of 5 mg/kg. It counts as ADME, organism-based, Canis lupus familiaris. More on the design: dose 5 mg/kg, route intravenous. The settings on record: plasma.
The nature of data set [7]: Tmax value in rat after oral administration at a dose of 10 mg/kg. The data set is classed as ADME, organism-based. More on the design: dose 10 mg/kg, route oral. The settings on record: in vivo.
Data set [8] is described as follows: Half life period in dog after IV administration at a dose of 5 mg/kg. As to conditions: in vivo. More on the design: dose 5 mg/kg, route intravenous. The data set is classed as ADME, organism-based, Canis lupus familiaris.
Data set [9] can be described thus: Cmax value in dog after oral administration at a dose of 5 mg/kg. The data set is classed as ADME, organism-based, Canis lupus familiaris. The settings on record: in vivo. More on the design: dose 5 mg/kg, route oral.
The nature of data set [10]: Half life period in rat after IV administration at a dose of 10 mg/kg. It counts as ADME, organism-based. More on the design: dose 10 mg/kg, route intravenous. As to conditions: in vivo.
Data set [11] is described as follows: Cmax value in rat after oral administration at a dose of 10 mg/kg. More on the design: dose 10 mg/kg, route oral. The settings on record: in vivo. The data set is classed as ADME, organism-based.
Data set [12] in a line: AUC value in rat after oral administration at a dose of 10 mg/kg. It counts as ADME, organism-based. Also noted: dose 10 mg/kg, route oral. The settings on record: plasma.
Data set [13] in a line: Tmax value in dog after oral administration at a dose of 5 mg/kg. Also noted: dose 5 mg/kg, route oral. The data set is classed as ADME, organism-based, Canis lupus familiaris. As to conditions: in vivo.
The nature of data set [14]: Bioavailability in dog after oral administration at a dose of 5 mg/kg. The settings on record: in vivo. It counts as ADME, organism-based, Canis lupus familiaris.
Data set [15] in a line: AUC value in dog after oral administration at a dose of 5 mg/kg. It counts as ADME, organism-based, Canis lupus familiaris. Also noted: dose 5 mg/kg, route oral. As to conditions: plasma.
Data set [16] can be described thus: AUC value in rat after IV administration at a dose of 10 mg/kg. It counts as ADME, organism-based. The settings on record: plasma. Also noted: dose 10 mg/kg, route intravenous.
The nature of data set [17]: Bioavailability in rat after oral administration at a dose of 10 mg/kg. The data set is classed as ADME, organism-based. The settings on record: in vivo.

A value given as a limit tells only on which side of the number the result lay.

Take `CSCC[C@H](NC(=O)c1ccc(/C(C#N)=C/c2cccnc2)cc1-c1ccccc1C)C(=O)O`: the IC50 in data set [1] turned out to be 0.59 nM. This compound returned an Inhibition in [2] of 57%.

`COc1ccncc1/C=C/c1ccc(C(=O)N[C@@H](CCSC)C(=O)O)c(-c2ccccc2C)c1` had an IC50 in data set [1] of 2.9 nM. Besides, in data set [2], the Inhibition was determined as 66%.

In data set [1], `CSCC[C@H](NC(=O)c1ccc(/C=C/c2cnccc2C(O)c2ccccc2)cc1-c1ccccc1C)C(=O)O` (stereo partly specified) had an IC50 of 0.58 nM. The Inhibition in data set [3] is recorded as 67%.

In data set [4], `CSCC[C@H](NC(=O)c1ccc(/C=C/n2ccnc2)cc1-c1ccccc1C)C(=O)O` displayed an EC50 of over 1000 nM. Also, half-maximal inhibition in [1] (IC50) was put at 0.2 nM.

`CSCC[C@H](NC(=O)c1ccc(CCn2ccnc2)cc1-c1ccccc1C)C(=O)O` returned an EC50 in data set [4] of over 1000 nM. Also, the IC50 in data set [1] is 0.21 nM.

In [4], `CSCC[C@H](NC(=O)c1ccc(/C=C/c2cnc3ccccc3c2)cc1-c1ccccc1C)C(=O)O` registered an EC50 of over 1000 nM. The compound also displayed an IC50 in data set [1] of 16 nM.

As for `CSCC[C@H](NC(=O)c1ccc(/C=C/c2cnccn2)cc1-c1ccccc1C)C(=O)O`, the IC50 in data set [1] stood at 57 nM.

In data set [1], `CSCC[C@H](NC(=O)c1ccc(/C(=C\c2cccnc2)C(=O)OC(C)(C)C)cc1-c1ccccc1C)C(=O)O` had an IC50 of 15 nM. Also, the Inhibition in [2] was 35%.

In turn, `CSCC[C@H](NC(=O)c1ccc(/C=C/c2cnccc2C(O)(c2ccccc2)c2ccccc2)cc1-c1ccccc1C)C(=O)O` registered an IC50 in data set [1] of 0.66 nM. This compound registered an Inhibition in [3] of 63%.

`CSCC[C@H](NC(=O)c1ccc(C#Cc2cncnc2)cc1-c1ccccc1C)C(=O)O`: it took 140 nM to reach half-maximal inhibition in data set [1] (IC50).

In the case of `CSCC[C@H](NC(=O)c1ccc(/C=C/c2cnccc2O)cc1-c1ccccc1C)C(=O)O`, the IC50 in data set [1] amounted to 0.29 nM. In addition, the Inhibition in data set [2] came out at 75%.

Compound `CSCC[C@H](NC(=O)c1ccc(/C=C/c2cncnc2)cc1-c1ccccc1C)C(=O)O` showed an IC50 in data set [1] of 25 nM.

Regarding `CSCC[C@H](NC(=O)c1ccc(/C=C/c2cncs2)cc1-c1ccccc1C)C(=O)O`, the EC50 in [4] is over 1000 nM. Besides, the IC50 in data set [1] turned out to be 2.4 nM.

As to `CSCC[C@H](NC(=O)c1ccc(CCc2c[nH]cn2)cc1-c1ccccc1C)C(=O)O`, the EC50 in [4] was over 1000 nM. Further, the IC50 in data set [1] came to 0.15 nM.

Compound `CSCC[C@H](NC(=O)c1ccc(/C=C/c2ccc(Oc3ccccc3)nc2)cc1-c1ccccc1C)C(=O)O` came in with an IC50 in [1] of 26 nM.

The compound `CSCC[C@H](NC(=O)c1ccc(/C=C/c2cnccc2C2(O)CCCCC2)cc1-c1ccccc1C)C(=O)O` registered an IC50 in data set [1] of 0.81 nM. Further, in [2], the Inhibition was 74%.

`CSCC[C@H](NC(=O)c1ccc(/C=C/c2cnccc2C(=O)c2ccccc2)cc1-c1ccccc1C)C(=O)O`: the EC50 in data set [4] was determined as 1000 nM. Also, it took 0.92 nM to reach half-maximal inhibition in [1] (IC50).

`CSCC[C@H](NC(=O)c1ccc(/C=C/c2cncc3ccccc23)cc1-c1ccccc1C)C(=O)O`: the IC50 in [1] was 0.8 nM. Moreover, in data set [5], at 1 µM the inhibition was 64%.

`CSCC[C@H](NC(=O)c1ccc(/C(C#N)=C\c2cccnc2)cc1-c1ccccc1C)C(=O)O` yielded an IC50 in data set [1] of 3.6 nM. The same compound registered an Inhibition in data set [2] of 60%.

In data set [1], `CSCC[C@H](NC(=O)c1ccc(/C=C/c2cnccc2OCc2cc(F)cc(F)c2)cc1-c1ccccc1C)C(=O)O` gave an IC50 of 0.3 nM.

With `CCCOc1ccncc1/C=C/c1ccc(C(=O)N[C@@H](CCSC)C(=O)O)c(-c2ccccc2C)c1`, it took 1.4 nM to reach half-maximal inhibition in [1] (IC50). In data set [2], this compound showed an Inhibition of 49%.

Compound `CSCC[C@H](NC(=O)c1ccc(/C(=C/c2cccnc2)C(=O)OC(C)(C)C)cc1-c1ccccc1C)C(=O)O` had a half-maximal inhibitory concentration (IC50) in data set [1] of 0.91 nM. This compound had an Inhibition in data set [2] of 80%.

Compound `CSCC[C@H](NC(=O)c1ccc(COc2cccnc2)cc1-c1ccccc1C)C(=O)O` yielded an IC50 in [1] of 0.4 nM.

In the case of `CSCC[C@H](NC(=O)c1ccc(/C=C/c2cnccc2C(O)[C@]23C[C@H]4C[C@H](C[C@H](C4)C2)C3)cc1-c1ccccc1C)C(=O)O` (stereo partly specified), the IC50 in data set [1] is 0.37 nM. In addition, the Inhibition in [2] is reported as 61%.

Take `CSCC[C@H](NC(=O)c1ccc(/C=C/c2cncc(Cc3ccccc3)c2)cc1-c1ccccc1C)C(=O)O`: the EC50 in data set [4] is over 1000 nM. Also, in [1], half-maximal inhibition (IC50) required 4.7 nM.

On to `CSCC[C@H](NC(=O)c1ccc(/C=C/c2cccnc2)cc1-c1ccccc1C)C(=O)O`, for which the AUC in data set [6] turned out to be 10.5 µg·h/mL; in [12], 0.87 µg·h/mL; in data set [15], 2.56 µg·h/mL; in data set [16], 6.66 µg·h/mL. For the same compound, the Tmax in [7] turned out to be 19.8 min; in [13], 22.8 min. Moreover, the half-life in [8] was 33 min; in [10], 129 min. In addition, the Cmax was determined as 2.83 µg/mL in data set [9] and 0.321 µg/mL in [11]. The same compound displayed an IC50 in data set [1] of 0.61 nM. In addition, the bioavailability turned out to be 24.5% in data set [14] and 23% in [17]. The same compound registered an Inhibition in [3] of 79%.

`CSCC[C@H](NC(=O)c1ccc(/C=C/c2c[nH]cn2)cc1-c1ccccc1C)C(=O)O` came in with an EC50 in data set [4] of over 1000 nM. For the same compound, in data set [1], the IC50 is 0.63 nM.

On to `CSCC[C@H](NC(=O)c1ccc(C#Cc2cccnc2)cc1-c1ccccc1C)C(=O)O`, for which the EC50 in data set [4] was 1000 nM. The IC50 in [1] came out at 2.7 nM.

Take `CSCC[C@H](NC(=O)c1ccc(/C=C/c2cncc(-c3ccccc3)c2)cc1-c1ccccc1C)C(=O)O`: the IC50 in data set [1] is 12 nM.

In [1], `CSCC[C@H](NC(=O)c1ccc(/C=C/c2cnccc2C(O)C2CCCCC2)cc1-c1ccccc1C)C(=O)O` (stereo partly specified) displayed an IC50 of 0.54 nM. In data set [2], this compound gave an Inhibition of 63%.

As to `CSCC[C@H](NC(=O)c1ccc(CCc2cccnc2)cc1-c1ccccc1C)C(=O)O`, the IC50 in data set [1] came to 2.1 nM.

In data set [1], `CSCC[C@H](NC(=O)c1ccc(/C=C/c2cnccc2Cl)cc1-c1ccccc1C)C(=O)O` yielded an IC50 of 0.29 nM. The same compound had an Inhibition in data set [2] of 60%.

In turn, `CSCC[C@H](NC(=O)c1ccc(/C=C/c2cnccc2C(=O)[C@]23C[C@H]4C[C@H](C[C@H](C4)C2)C3)cc1-c1ccccc1C)C(=O)O` came in with an IC50 in [1] of 0.12 nM. In [2], the Inhibition amounted to 74%.

In turn, `CSCC[C@H](NC(=O)c1ccc(NC[C@@H](N)CS)cc1-c1ccccc1)C(=O)O` registered an EC50 in data set [4] of 1000 nM.
